The results in this text go back to US9695200B2, “Heterocyclic ITK inhibitors for treating inflammation and cancer” (Confluence Life Sciences, Inc., priority 2015, dated 2017).

The structures appear in SMILES notation.

In one assay the target is ITK (Homo sapiens (Human), UniProt Q08881). As to the kind of experiment: ITK inhibitor binding potency (LanthaScreen competitive binding assay). As to conditions: TR-FRET tracer-236 displacement, 10 nM ITK; pre-incubation condition not given; read-out: ITK Inhibition IC50. The source says:
The ability of candidate compounds to interact with ITK is quantitated by a competitive binding assay using the LanthaScreen technology developed by Life Technologies. This assay is based on the binding of a proprietary, Alexa Fluor® 647-labeled, ATP-competitive kinase inhibitor (kinase tracer-236) to the ITK expression construct in the presence of a Europium-conjugated antibody, resulting in a FRET (fluorescence resonance energy transfer) signal. Displacement of the kinase tracer by compound results in a lower emission ratio upon excitation of the Europium chelate. Candidate compounds are designed as potential irreversible inhibitors of ITK, capable of ligating to an active site cysteine residue resulting in time dependent covalent binding. The time dependent nature of irreversible inhibition is investigated by performing the binding assay with and without a pre-incubation of compound and ITK. […] The inhibitory potency of candidate compounds is measured in 20 mM HEPES pH 7.5, 10 mM MgCl2, 0.01% BSA, 0.0005% Tween-20, and 2% DMSO in the presence of 10 nM ITK, 2 nM Eu-anti-GST antibody, and 50 nM kinase tracer-236 using a 384-well plate format. Background signal is defined in the absence of ITK and uninhibited signal is defined in the presence of vehicle (2% DMSO) alone. Compounds were evaluated in an 11 point dose-response ranging from 20 uM to 0.34 nM. The binding assays are performed under two preincubation conditions to evaluate time dependence of inhibition. For the pre-incubation assay, ITK and Eu-anti-GST antibody are pre-incubated with compound or vehicle for two hours prior to the addition of kinase tracer. The non-preincubated assay is run under conditions where ITK and Eu-anti-GST antibody are added to a mixture of compound and kinase tracer. IC50 values of compounds are determined using a 4 parameter logistical fit of emission ratio as a function of the concentration of compound.
(In TR-FRET formats the signal depends on donor and acceptor labels being close together.)

The subject of assay [1] is phospho-PLCγ1 in Jurkat cells. As to the kind of experiment: ITK target modulation PLC-γ assay (phospho-PLCγ1, αCD3-stimulated Jurkat cells). Type of assay: cell-based, human. As to conditions: Homo sapiens, 1 hour compound incubation, αCD3 Dynabeads stimulation 8 minutes, MSD phospho-PLCγ1, read-out: PLC-γ Inhibition IC50. As for the experimental part:
Jurkat cells, an immortalized human T-lymphocyte cell line, were maintained in RPMI media, 10% FBS, 1% pen/strep/glutamine (growth media). Cells were plated in growth media plus 50 μM β-mercaptoethanol at 400,000 cells per well of a 96 well plate.
Compounds were serially diluted into DMSO, and then into media to concentrations 10× that of the final assay concentration. Compounds were then added to the cells with the final assay DMSO concentration being 0.1%. Cells were incubated for 1 hour at 37° C.
Following compound incubation, αCD3 Dynabeads were added at 1 bead/cell to each assay well and incubated at 37° C. for 7 minutes. Unstimulated control wells received media only. The plate was then placed on a 96-well magnetic plate for an additional 60 seconds (total assay stimulation time equals 8 minutes). The plate was then dumped and gently patted dry on a paper towel. 50 μl of complete Meso Scale Discovery (MSD) Lysis buffer was then added to each well. Samples were assayed for phospho-PLCγ1 using Meso Scale Discovery technology.
The assay stimulation time has been optimized for detection of Itk kinase-mediated phosphorylation of PLCγ1. The timing and detection reagents for this assay could be adjusted to capture phosphorylation events upstream (e.g., phospho-ZAP70) or downstream of the Itk/PLCγ1 node, provided the appropriate phospho-specific antibodies are available for building of an MSD assay.

Sequence of ITK (Q08881 whole entry): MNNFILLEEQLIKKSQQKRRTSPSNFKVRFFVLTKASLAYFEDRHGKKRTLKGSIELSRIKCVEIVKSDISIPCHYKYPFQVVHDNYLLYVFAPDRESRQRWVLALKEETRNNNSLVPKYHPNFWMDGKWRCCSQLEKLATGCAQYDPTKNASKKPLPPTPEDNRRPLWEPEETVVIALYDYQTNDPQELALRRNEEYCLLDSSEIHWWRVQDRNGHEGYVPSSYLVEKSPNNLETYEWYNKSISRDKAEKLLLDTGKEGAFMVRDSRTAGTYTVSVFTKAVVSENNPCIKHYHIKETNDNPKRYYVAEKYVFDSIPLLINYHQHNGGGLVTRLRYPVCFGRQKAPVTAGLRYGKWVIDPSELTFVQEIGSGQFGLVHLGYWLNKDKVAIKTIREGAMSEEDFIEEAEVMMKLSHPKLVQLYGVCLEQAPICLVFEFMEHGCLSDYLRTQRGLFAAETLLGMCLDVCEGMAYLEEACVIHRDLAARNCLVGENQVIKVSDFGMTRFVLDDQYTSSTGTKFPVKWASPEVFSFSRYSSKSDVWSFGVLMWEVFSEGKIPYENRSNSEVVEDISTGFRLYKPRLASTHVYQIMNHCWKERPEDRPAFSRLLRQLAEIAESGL

Turning to `CN(C)C/C=C/C(=O)Nc1cccc(-c2cnc3[nH]cc(-c4ccncc4)c3c2)c1` [Example 24, (E)-4-(dimethylamino)-N-(3-(3-(pyridin-4-yl)-1H-pyrrolo[2,3-b]pyridin-5-yl)phenyl)but-2-enamide], the values for the IC50 (on ITK; in assay [1]) were not above 1000 nM and less than 1000 nM, respectively.
Taken in the same sequence, the figures for `C=CC(=O)Nc1cc(-c2cnc3[nH]cc(-c4ccnc(OC)c4)c3c2)cc(N2CCOCC2)n1` [Example 41, N-(4-(3-(2-methoxypyridin-4-yl)-1H-pyrrolo[2,3-b]pyridin-5-yl)-6-morpholinopyri-din-2-yl)acrylamide] were not above 1000 nM and less than 1000 nM.
`CN(C)C/C=C/C(=O)Nc1cccc(-c2cnc3[nH]cc(-c4ccc(=O)n(C)c4)c3c2)c1` [Example 34, (E)-4-(dimethylamino)-N-(3-(3-(1-methyl-6-oxo-1,6-dihydropyridin-3-yl)-1H-pyrrolo[2,3-b]pyridin-5-yl)phenyl)but-2-enamide]: the IC50 is more than 1000 nM on ITK and more than 5000 nM in assay [1].
Regarding `C=CC(=O)Nc1cccc(-c2cnc3[nH]cc(-c4c[nH]c(=O)c5ccccc45)c3c2)c1` [Example 69, N-(3-(3-(1-oxo-1,2-dihydroisoquino-lin-4-yl)-1H-pyrrolo[2,3-b]pyridin-5-yl)phenyl)acryl-amide], the IC50 on ITK was not above 1000 nM; in assay [1] it was more than 5000 nM.
With `COc1cc(-c2c[nH]c3ncc(-c4cccc(NC(=O)/C=C/CN5CCOCC5)c4)cc23)ccn1` [Example 38, (E)-N-(3-(3-(2-methoxypyridin-4-yl)-1H-pyrrolo[2,3-b]pyridin-5-yl)phenyl)-4-morpholinobut-2-enamide], the IC50 on ITK was not above 1000 nM; in assay [1] it was more than 5000 nM.
As for `CN(C)C/C=C/C(=O)Nc1cccc(-c2cnc3[nH]cc(-c4ccnc5[nH]ccc45)c3c2)c1` [Example 89, (E)-N-(3-(1H,1′H-[3,4′-bipyrrolo[2,3-b]pyridin]-5-yl)phenyl)-4-(dimethylamino) but-2-enamide], the 50% inhibitory concentration (IC50) was not above 1000 nM on ITK and less than 1000 nM in assay [1].
As to `C=CC(=O)Nc1cncc(-c2cnc3[nH]cc(-c4ccnc(C)c4)c3c2)c1` [Example 28, N-(5-(3-(2-methylpyridin-4-yl)-1H-pyrrolo[2,3-b]pyridin-5-yl)pyridin-3-yl)acrylamide], the values for the IC50 (on ITK; in assay [1]) were not above 1000 nM and less than 1000 nM, respectively.
As to `C=CC(=O)N[C@H]1CCCN(c2cnc3[nH]cc(-c4ccncc4)c3c2)C1` [Example 15, (S)-N-(1-(3-(pyridin-4-yl)-1H-pyrrolo[2,3-b]pyridin-5-yl)piperidin-3-yl)acrylamide], the IC50 on ITK is not above 1000 nM; in assay [1], more than 5000 nM.
Regarding `COc1cc(-c2c[nH]c3ncc(-c4cccc(/C=C(\C#N)C(N)=O)c4)cc23)ccn1` [Example 9, (E)-2-Cyano-3-(3-(3-(2-methoxypyridin-4-yl)-1H-pyrrolo[2,3-b]pyridin-5-yl)phenyl)acrylamide], the figures for the IC50 (on ITK; in assay [1]) were not above 1000 nM and more than 5000 nM, respectively.
In the case of `C=CC(=O)Nc1cccc(-c2cnc3[nH]cc(-c4ccc(C(=O)Nc5ccc(C)cc5C)cc4)c3c2)c1` [Example 67, 4-(5-(3-acrylamidophen-yl)-1H-pyrrolo[2,3-b]pyridin-3-yl)-N-(2,4-dimethylphenyl) benzamide], the IC50 at ITK is more than 1000 nM; in assay [1], less than 1000 nM.
`C=CC(=O)N[C@H]1CCN(c2cnc3[nH]cc(-c4ccncc4)c3c2)C1` [Example 14, (S)-N-(1-(3-(pyridin-4-yl)-1H-pyrrolo[2,3-b]pyridin-5-yl)pyrrolidin-3-yl)acrylamide]: the IC50 was not above 1000 nM on ITK and more than 5000 nM in assay [1].
As to `C=CC(=O)Nc1cc(-c2cnc3[nH]cc(-c4ccnc(OC)c4)c3c2)cc(OC(C)C)n1` [Example 45, N-(6-isopropoxy-4-(3-(2-methoxypyridin-4-yl)-1H-pyrrolo[2,3-b]pyridin-5-yl)pyridin-2-yl)acrylamide], the IC50 is not above 1000 nM on ITK and 1000 to 5000 nM in assay [1].

As a reminder, the IC50 is the concentration at which inhibition is half-maximal.
